Like-named read-outs stand apart in the source and are kept apart here.
Key:
[1] = hydroperoxidation of methyl linoleate via radical chain reaction in hexane/isopropyl alcohol; format: biochemical; conditions: 0.1 μmol antioxidant in 1.1 ml hexane/isopropyl alcohol 1:1; 37 °C; oil-soluble radical generator; in words
Source text: Antioxidant activity on the chromanol glycoside obtained in Examples 1 to 5 [6-hydroxy-2,5,7,8-tetramethyl chroman-2-methyl-α-D-glucopyranoside represented by the aforementioned formula (4)], the chromanol glycoside obtained in Examples 6 to 8 [6-hydroxy-2,5,7,8-tetramethyl chroman-2-ethyl-α-D-glucopyranoside represented by the aforementioned formula (7)], the chromanol glycoside obtained in Examples 4 and 5 [6-hydroxy-2,5,7,8-tetramethyl chroman-2-methyl-α-D-maltopyranoside represented by the aforementioned formula (5)], and the chromanol glycoside obtained in Example 8 [6-hydroxy-2,5,7,8-tetramethyl chroman-2-ethyl-α-D-maltopyranoside represented by the aforementioned formula (8)] was investigated by measuring the hydroperoxidation of methyl linoleate via radical chain reaction. Specifically, this test was performed by incubating 132 μmol of methyl linoleate, 16.5 μmol of an oil-soluble radical generator [2,2'-azo-bis(2,4-dimethyl valeronitrile)], 0.1 μmol of antioxidant in 1.1 ml of a hexane/isopropyl alcohol (1:1 v/v), and the mixture was incubated at 37° C. At regular intervals, aliquots of the reaction mixture were withdrawn and the amount of methyl linoleate hydroperoxides were measured by HPLC. […] EXAMPLE 10

[2] = antioxidant activity using liposomal membranes (phosphatidylcholine hydroperoxides); format: biochemical; conditions: 0.1 μmol antioxidant in 1.1 ml 10 mM tris-HCl buffer pH 7.4; water-soluble radical generator; in words
Source text: Antioxidant activity on the chromanol glycoside obtained in Examples 1 to 5 [6-hydroxy-2,5,7,8-tetramethyl chroman-2-methyl-α-D-glucopyranoside represented by the aforementioned formula (4)[, the chromanol glycoside obtained in Examples 6 to 8 [6-hydroxy-2,5,7,8-tetramethyl chroman-2-ethyl-α-D-glucopyranoside represented by the aforementioned formula (7)], the chromanol glycoside obtained in Examples 4 and 5 [6-hydroxy-2,5,7,8-tetramethyl chroman-2-methyl-α-D-maltopyranoside represented by the aforementioned formula (5)], and the chromanol glycoside obtained in Example 8 [6-hydroxy-2,5,7,8-tetramethyl chroman-2-ethyl-α-D-malto-pyranoside represented by the aforementioned formula (8)] was investigated by using a liposonal membranes. Specifically, this test was performed by adjusting a reaction solution consisting of 5.5 μmol of a multilameller liposomes of egg yolk phosphatidylcholine, 16.5 μmol of a water-soluble radical generator [2,2'-azo-bis(2-amidinopropane) dihydrochloride], and 0.1 μmol of antioxidant in 1.1 ml of a 10 mM tris-HCl buffer (pH 7.4). At regular intervals, aliquots of the reaction mixture were withdrawn and the amount of phosphatidylcholine hydroperoxides were measured by HPLC.

pH stability = format: physicochemical; conditions: 5.5 mM, buffer/ethanol 5:1 v/v; for remaining at 100 h, 5500 µM: read-out: Residual amounts (%) after 100 hours; for Residual amounts (%) after 100 hours: 5500 µM
Source text: The chromanol glycoside obtained in Examples 1 to 5 [6-hydroxy-2,5,7,8-tetramethyl chroman-2-methyl-α-D-glucopyranoside represented by the aforementioned formula (4)], the chromanol glycoside obtained in Examples 6 to 8 [6-hydroxy-2,5,7,8-tetramethyl chroman-2-ethyl-α-D-glucopyranoside represented by the aforementioned formula (7)], the chromanol glycoside obtained in Examples 4 and 5 [6-hydroxy-2,5,7,8-tetramethyl chroman-2-methyl-α-D-maltopyranoside represented by the aforementioned formula (5)], and the chromanol glycoside obtained in Example 8 [6 -hydroxy-2,5,7,8-tetramethyl chroman-2-ethyl-α-D-maltopyranoside represented by the aforementioned formula (8)] were tested for pH stability. This test was specifically performed by incubating a 5.5 mM chromanol glycoside solution (buffer/ethanol, 5:1 v/v) having a varying pH value. At regular intervals, aliquots of the reaction mixture were withdrawn and the residual amounts of chromanol glycoside were measured by HPC. For the purpose of comparison, the 2-substituted alcohols represented by the aforementioned formulas (3) and (6) and Trolox were similarly tested.
It is clearly noted from the test results that the conversion of 2-substituted alcohols into respective glycosides enhances pH stability. The buffer used for the test were 100 mM acetate buffer of pH 5.5, 100 mM phosphate buffer of pH 7.0, and 100 mM tris-HCl buffer of pH 8,5.

solubility in water = format: physicochemical; conditions: 25 °C, constant stirring at 200 rpm, HPLC; for solubility: water, read-out: solubility in water (amounts of sample dissolved in 1 ml of water)
Source text: The chromanol glycoside obtained in Examples 1 to 5 [6-hydroxy-2,5,7,8-tetramethyl chroman-2-methyl-α-D-glucopyranoside represented by the aforementioned formula (4)], the chromanol glycoside obtained in Examples 6 to 8 [6-hydroxy-2,5,7,8-tetramethyl chroman-2-ethyl-α-D-glucopyranoside represented by the aforementioned formula (7)], the chromanol glycoside obtained in Examples 4 and 5 [6-hydroxy-2,5,7,8-tetramethyl chroman-2-methyl-α-D-maltopyranoside represented by the aforementioned formula (5)], and the chromanol glycoside obtained in Example 8 [6-hydroxy-2,5,7,8-tetramethyl chroman-2-ethyl-α-D-maltopyranoside represented by the aforementioned formula (8)] were tested for solubility in water. Specifically, this test was performed by adding an excess amount of a given chromanol glycoside to 1 ml of water. The reaction mixture was incubated at 25° C. for […] with constant stirring at 200 rpm. After 100 hours, the reaction mixture was transferred into a membrane filter (produced by Nihon Millipore Ltd. and marketed under trademark designation of "HPLC Sample Prep C02-LG") and insoluble substances were removed by centrifugation (4,100×g, 10 minutes, 20° C.). The filtered solution was subjected to HPLC to determine the amount of chromanol glycoside remaining in the aqueous solution. For the purpose of comparison, the 2-substituted alcohols represented by the aforementioned formulas (3) and […] and Trolox were similarly tested.
The numerals given in the tables represent the amounts of sample dissolved in 1 ml of water.

[3] = acetate buffer/ethanol 5:1, pH 5.5, pH 5.5 (100 mM acetate buffer)
[4] = phosphate buffer/ethanol 5:1, pH 7, pH 7.0 (100 mM phosphate buffer)
[5] = tris-hcl buffer/ethanol 5:1, pH 8.5, pH 8.5 (100 mM tris-HCl buffer)

remaining at 100 h, 5500 µM (pH stability; [3])	remaining at 100 h, 5500 µM (pH stability; [4])	remaining at 100 h, 5500 µM (pH stability; [5])	solubility (solubility in water)	Structure (SMILES)	antioxidant activity (methyl linoleate hydroperoxides) [1]	antioxidant activity (phosphatidylcholine hydroperoxides) [2]	other results
69%	24%	7%	33 mg/mL	Cc1c(C)c2c(c(C)c1O)CCC(C)(CCO[C@H]1O[C@H](CO)[C@@H](O)[C@H](O)[C@H]1O)O2 (stereo partly drawn) [formula (7), 6-hydroxy-2,5,7,8-tetramethyl chroman-2-ethyl-α-D-glucopyranoside]	excel 3,5-tert-butyl-4-hydroxytoluene and equal α-tocopherol	more effective antioxidants than ascorbic acid	Residual amounts (%) after 100 hours (pH stability; pH 5.5 (100 mM acetate buffer), listed as formula (7) of Example 7, 6000 min): 71%; Residual amounts (%) after 100 hours (pH stability; pH 5.5 (100 mM acetate buffer), listed as formula (7) of Example 8, 6000 min): 70%; Residual amounts (%) after 100 hours (pH stability; pH 7.0 (100 mM phosphate buffer), listed as formula (7) of Example 7, 6000 min): 26%; Residual amounts (%) after 100 hours (pH stability; pH 7.0 (100 mM phosphate buffer), listed as formula (7) of Example 8, 6000 min): 25%; Residual amounts (%) after 100 hours (pH stability; pH 8.5 (100 mM tris-HCl buffer), listed as formula (7) of Example 8, 6000 min): 8%; solubility in water (amounts of sample dissolved in 1 ml of water) (solubility in water; listed as formula (7) of Example 7): 45 mg/mL; solubility in water (amounts of sample dissolved in 1 ml of water) (solubility in water; listed as formula (7) of Example 8): 45 mg/mL
91%	41%	20%	~1000 mg/mL	Cc1c(C)c2c(c(C)c1O)CCC(C)(CO[C@H]1O[C@H](CO)[C@@H](O)[C@H](O)[C@H]1O)O2 (stereo partly drawn) [formula (4), 6-hydroxy-2,5,7,8-tetramethyl chroman-2-methyl-α-D-glucopyranoside]	excel 3,5-tert-butyl-4-hydroxytoluene and equal α-tocopherol	more effective antioxidants than ascorbic acid	Residual amounts (%) after 100 hours (pH stability; pH 5.5 (100 mM acetate buffer), listed as formula (4) of Example 2, 6000 min): 85%; Residual amounts (%) after 100 hours (pH stability; pH 5.5 (100 mM acetate buffer), listed as formula (4) of Example 3, 6000 min): 89%; Residual amounts (%) after 100 hours (pH stability; pH 5.5 (100 mM acetate buffer), listed as formula (4) of Example 4, 6000 min): 84%; Residual amounts (%) after 100 hours (pH stability; pH 5.5 (100 mM acetate buffer), listed as formula (4) of Example 5, 6000 min): 88%; Residual amounts (%) after 100 hours (pH stability; pH 7.0 (100 mM phosphate buffer), listed as formula (4) of Example 2, 6000 min): 42%; Residual amounts (%) after 100 hours (pH stability; pH 7.0 (100 mM phosphate buffer), listed as formula (4) of Example 3, 6000 min): 43%; Residual amounts (%) after 100 hours (pH stability; pH 7.0 (100 mM phosphate buffer), listed as formula (4) of Example 4, 6000 min): 44%; Residual amounts (%) after 100 hours (pH stability; pH 7.0 (100 mM phosphate buffer), listed as formula (4) of Example 5, 6000 min): 43%; Residual amounts (%) after 100 hours (pH stability; pH 8.5 (100 mM tris-HCl buffer), listed as formula (4) of Example 2, 6000 min): 19%; Residual amounts (%) after 100 hours (pH stability; pH 8.5 (100 mM tris-HCl buffer), listed as formula (4) of Example 4, 6000 min): 19%; Residual amounts (%) after 100 hours (pH stability; pH 8.5 (100 mM tris-HCl buffer), listed as formula (4) of Example 5, 6000 min): 21%; solubility in water (amounts of sample dissolved in 1 ml of water) (solubility in water; listed as formula (4) of Example 3): About 1000 mg/ml; solubility in water (amounts of sample dissolved in 1 ml of water) (solubility in water; listed as formula (4) of Example 4): About 1000 mg/ml; solubility in water (amounts of sample dissolved in 1 ml of water) (solubility in water; listed as formula (4) of Example 5): About 1000 mg/ml

Second part, the compound before the results:

Structure (SMILES)	remaining at 100 h, 5500 µM (pH stability; [3])	remaining at 100 h, 5500 µM (pH stability; [4])	remaining at 100 h, 5500 µM (pH stability; [5])	solubility (solubility in water)	antioxidant activity (methyl linoleate hydroperoxides) [1]	antioxidant activity (phosphatidylcholine hydroperoxides) [2]	other results
Cc1c(C)c2c(c(C)c1O)CCC(C)(CCO)O2 (racemic) [formula (6), reference compound]	63%	19%	3%	0.1 mg/mL	–	–	–
Cc1c(C)c2c(c(C)c1O)CCC(C)(CO[C@H]1O[C@H](CO)[C@@H](O[C@H]3O[C@H](CO)[C@@H](O)[C@H](O)[C@H]3O)[C@H](O)[C@H]1O)O2 (stereo partly drawn) [formula (5), 6-hydroxy-2,5,7,8-tetramethyl chroman-2-methyl-α-D-maltopyranoside]	84%	40%	19%	–	excel 3,5-tert-butyl-4-hydroxytoluene and equal α-tocopherol	more effective antioxidants than ascorbic acid	Residual amounts (%) after 100 hours (pH stability; pH 5.5 (100 mM acetate buffer), listed as formula (5) of Example 5, 6000 min): 86%; Residual amounts (%) after 100 hours (pH stability; pH 7.0 (100 mM phosphate buffer), listed as formula (5) of Example 5, 6000 min): 44%; Residual amounts (%) after 100 hours (pH stability; pH 8.5 (100 mM tris-HCl buffer), listed as formula (5) of Example 5, 6000 min): 20%
Cc1c(C)c2c(c(C)c1O)CCC(C)(CO)O2 (racemic) [formula (3), reference compound]	73%	29%	7%	1 mg/mL	–	–	–

— US5478812A, “Chromanol glycoside and method for production thereof” (CCI Corporation, priority 1993, dated 1995)
